Measurements as given in patent publication US10124012B2, “Method for treatment of hyperglycemia and hyperlipidemia” (priority 2016, dated 2018).

Tests used:
Format in all cases: in vivo, C57BL/6J mice
SREBP1c = assay: Liver mRNA by semi-quantitative RT-PCR: SREBP1c; settings: HFD-fed mice, oral gavage once daily 4 weeks, AnK 10, 20, 40, Feno 250, Metf 300 mg/kg/day, vs HF group
Excerpt: (§1) The 4-week old male C57BL/6J mice (total amount n=63) were obtained from the National Laboratory Animal Center (Taipei, Taiwan). After acclimatization for one week, all of the mice were randomly assigned into a control (CON) group and a high-fat diet (HFD) group. […] After HFD feeding for 8 weeks, the HFD group was randomly subdivided into six groups (n=9 per group) receiving different treatments and fed on HFD. […] The HF+AnK1, HF+AnK2, and HF+AnK3 groups are collectively termed AnK-treated HFD groups in the following examples. The CON mice were administered vehicle. All treatments were administered via oral gavage once daily. After administration for 4 weeks, all mice were fasted 12 hours, and blood was collected from the retro-orbital sinus under ether anesthesia. […]
(§2) Total RNA from liver tissue of mice was isolated with a Trizol Reagent (Molecular Research Center, Inc., Cincinnati, Ohio, USA) according to the manufacturer's instructions. The integrity of the extracted total RNA was examined by 2% agarose gel electrophoresis, and the RNA concentration was determined by the ultraviolet (UV) light absorbency at 260 nm and 280 nm (Spectrophotometer U-2800A, Hitachi). […]
(§3) Levels of mRNA of target genes were quantified by semi-quantitative reverse transcription polymerase chain reaction (RT-PCR). […] PCR products were analyzed by 2% agarose gel and stained with ethidium bromide.

apoCIII = assay: Liver mRNA by semi-quantitative RT-PCR: apoCIII; settings: HFD-fed mice, oral gavage once daily 4 weeks, AnK 10, 20, 40, Feno 250, Metf 300 mg/kg/day, vs HF group
Excerpt: as §1, §2, §3

SREBP2 = assay: Liver mRNA by semi-quantitative RT-PCR: SREBP2; settings: HFD-fed mice, oral gavage once daily 4 weeks, AnK 10, 20, 40, Feno 250, Metf 300 mg/kg/day, vs HF group
Excerpt: as §1, §2, §3

[1] = system: phospho-AMPK (Thr^172)/total-AMPK; assay: Western blotting of phospho-AMPK/total-AMPK in skeletal muscle and liver; settings: HFD-induced reduction, AnK 10, 20, 40, Feno 250, Metf 300 mg/kg/day, vs HF group
Excerpt: (§4) The 4-week old male C57BL/6J mice (total amount n=63) were obtained from the National Laboratory Animal Center (Taipei, Taiwan). After acclimatization for one week, all of the mice were randomly assigned into a control (CON) group and a high-fat diet (HFD) group. […] After HFD feeding for 8 weeks, the HFD group was randomly subdivided into six groups (n=9 per group) receiving different treatments and fed on HFD. […] The HF+AnK1, HF+AnK2, and HF+AnK3 groups are collectively termed AnK-treated HFD groups in the following examples. The CON mice were administered vehicle. All treatments were administered via oral gavage once daily. After administration for 4 weeks, all mice were fasted 12 hours, and blood was collected from the retro-orbital sinus under ether anesthesia. At the end of the experiment, the mice were sacrificed via carbon dioxide inhalation. Liver, adipose tissue, and skeletal muscle were collected and immediately stored at −80° C. for target gene analysis.
(§5) About 0.1 g of liver tissue, skeletal muscle, or adipose tissue was used for the homogenate samples. Samples were powdered under liquid nitrogen and homogenized for 20 seconds in 500 μL buffer containing 20 mM Tris-HCl (pH 7.4 at 4° C.), 2% SDS, 5 mM EDTA, 5 mM EGTA, 1 mM dithiothreitol (DTT), 100 mM NaF, 2 mM sodium vanadate, 0.5 mM phenylmethylsulfonyl fluoride, 10 μg/mL leupeptin, and 10 μL/mL pepstatin. The total membrane fraction was used for measurement. The protein concentration in supernatant was determined with a BCA protein assay kit (Thermo Scientific, Rockford, Ill., USA). […] The membrane was blocked with 5% slim milk in Tris-buffered saline (TBS)(Amersham BioSciences, Uppsala, Sweden) containing 0.05% Tween-20 (Bio Rad, CA, USA) and incubated overnight at 4° C. with antibodies at 1:200 dilution. Subsequently, the membrane was washed three times with TBS containing 0.05% Tween-20 and incubated with secondary antibody anti-rabbit (1:1000)(Jackson ImmunoResearch Laboratories, Inc., PA, USA) for 1 hour. Immunoreactive bands were detected with ECL reagent kit (GE Healthcare BioSciences, Buckinghamshire, UK). The intensity of Western blot signals was analyzed using AlphaEase FC software (Alpha Innotech Corporation, Randburg, South Africa). The structural protein GAPDH in the samples was used as the loading control.

DGAT2 = assay: Liver mRNA by semi-quantitative RT-PCR: DGAT2; settings: HFD-fed mice, oral gavage once daily 4 weeks, AnK 10, 20, 40, Feno 250, Metf 300 mg/kg/day, vs HF group
Excerpt: as §1, §2, §3

[2] = system: phospho-Akt (Ser^473)/total-Akt; assay: Western blotting of phospho-Akt/total-Akt in skeletal muscle and liver; settings: HFD-induced reduction, AnK 10, 20, 40, Feno 250, Metf 300 mg/kg/day, vs HF group
Excerpt: as §4, §5

PPARγ = assay: Western blotting of PPARγ in adipose tissue; settings: HFD-fed mice, AnK 10, 20, 40, Feno 250, Metf 300 mg/kg/day, vs HF group
Excerpt: as §1, with “anesthesia. At the end of the experiment, the mice were sacrificed via carbon dioxide inhalation.” for “anesthesia.”
About 0.1 g of liver tissue, skeletal muscle, or adipose tissue was used for the homogenate samples. […] The protein concentration in supernatant was determined with a BCA protein assay kit (Thermo Scientific, Rockford, Ill., USA). […] Immunoreactive bands were detected with ECL reagent kit (GE Healthcare BioSciences, Buckinghamshire, UK). The intensity of Western blot signals was analyzed using AlphaEase FC software (Alpha Innotech Corporation, Randburg, South Africa). […]

Structure (SMILES)	mRNA levels of SREBP1c (SREBP1c)	mRNA levels of apoCIII (apoCIII)	mRNA levels of SREBP2 (SREBP2)	expression levels of phospho-AMPK/total-AMPK ([1]; liver)	expression levels of phospho-AMPK/total-AMPK ([1]; skeletal muscle)	mRNA levels of DGAT2 (DGAT2)	expression levels of phosphor-Akt/total-Akt ([2]; liver)	expression levels of phosphor-Akt/total-Akt ([2]; skeletal muscle)	expression levels of PPARγ (protein) (PPARγ)
C=C(CC[C@@H](C)[C@H]1CC[C@H]2C3=C(C(=O)C[C@]12C)[C@@]1(C)CC[C@@H](O)[C@](C)(O)[C@@H]1C[C@@H]3O)C(C)C(=O)O (stereo partly drawn) [AnK, 3α,4β,7β-trihydroxy-4α-methylergosta-8,24(28)-dien-11-on-25S-26-oic acid]	significantly decreased	significantly decreased	significantly decreased	significantly reversed	significantly reversed	significantly decreased	significantly reversed	significantly reversed	significantly reduced
CN(C)C(=N)N=C(N)N [Metf, metformin, reference compound]	significantly decreased	significantly decreased	significantly decreased	significantly reversed	significantly reversed	significantly decreased	significantly reversed	significantly reversed	–
